{"source": "patent US12358918B2", "about": "“Aryl hydrocarbon receptor (AHR) activator compounds as cancer therapeutics” (THE BROAD INSTITUTE, INC., priority 2018, dated 2025)", "key": {"578 cancer cell lines": {"tested_on": "578 cancer cell lines", "assay": "PRISM multiplexed cellular viability screening", "format": "cell-based", "settings": "relation to FOXA1 / FOXA1 target expression across cell lines", "method": "The instant discovery was made using large-scale multiplex profiling of existing drugs against 578 cancer cell lines, employing a PRISM multiplexed cellular viability assay.\nParental cell lines were obtained from the Cancer Cell Line Encyclopedia (CCLE) project (1). PRISM cell line barcoding, pooling, and screening was performed as previously described with several improvements to the original method (2). First, the lentiviral vector was modified to encode the unique barcode identifier at the end of the puromycin resistance gene. This enables barcodes to be detected using a variant of the mRNA capture and Luminex detection method developed for the L1000 gene expression assay (3). Second, a set of ten inert barcodes were spiked-in to each well of each plate after cell lysis to control for variation in PCR amplification as detailed below.\nLuminex technology produced .Ixb files containing data for each Luminex bead observed during detection. These .Ixb files were processed to compute Median Fluorescence Intensity (MFI) values, calculated as the median of the values obtained for all beads corresponding to a single PRISM barcode.\nMFI values were log-transformed (log MFI) and used to perform basic quality control. To detect probable screening artifacts, log MFI values were centered to the median log MFI for each cell line on each plate in order to put the measurements from each cell line on the same scale. For each well on each plate, the median of these centered values was then standardized according to the global median and global MAD across all plate wells in the same position. Data from wells with a standardized score of greater than 5 or less than −5 were excluded from all further processing steps.\nFor each cell line on each plate, the distribution of MFI values observed for the DMSO-treated negative controls was compared to that of the positive controls using a robust form of the Strictly Standardized Mean Difference (SSMD*)′. Specifically, SSMD* was calculated as: […]\nData corresponding to SSMD values less than 2 were removed before calculating cell viability.\nThe data in the instant disclosure were produced according to two different screening protocols. In the PR500 protocol, ten inert barcodes were spiked-in to each well of each plate after cell lysis. For data produced using the PR500 protocol, normalized MFI (nMFI) values were computed by taking the ratio of each MFI value against the median of the inert barcodes within each well. […]\nCell viability was calculated as the ratio of nMFI to the median of the nMFI from the DMSO-treated negative controls for each cell line on each plate. […] The final viability values were calculated as the median of the batch-corrected cell viabilities from biological replicates for each cell line, compound and dose. […]"}, "[1]": {"molecular_target": "T1, recombinant human Adenosine A1 (FAST-001C) receptor (Homo sapiens, UniProt P30542)", "T1 sequence (P30542 1-326)": "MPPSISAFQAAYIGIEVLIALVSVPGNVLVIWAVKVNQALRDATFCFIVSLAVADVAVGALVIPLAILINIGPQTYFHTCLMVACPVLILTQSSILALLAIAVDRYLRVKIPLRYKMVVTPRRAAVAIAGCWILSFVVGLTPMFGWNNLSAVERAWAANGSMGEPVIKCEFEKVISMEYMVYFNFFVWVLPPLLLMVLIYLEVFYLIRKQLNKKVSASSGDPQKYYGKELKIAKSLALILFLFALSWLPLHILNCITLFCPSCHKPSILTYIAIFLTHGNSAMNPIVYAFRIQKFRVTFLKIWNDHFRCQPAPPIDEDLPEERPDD", "assay": "cAMP HTRF assay, Adenosine A1 receptor, antagonist mode", "set-up": "inhibition: dose or concentration left out as unconfirmed"}}, "note": "“Also recorded” adds a separate entry of the source.", "data": [{"compound": "Nc1nc2ccc(Cl)cc2c2nc(-c3ccco3)nn12", "note": "[CGS-15943, reference compound]", "values": [{"measurement": "cell killing profile in PRISM", "setting": "578 cancer cell lines", "value": "cell killing profile specific for such FOXA1-dependent cancer cell lines; also recorded: selective killing of FOXA1-high cancer cell lines"}, {"measurement": "inhibition", "setting": "[1]; CHO-K1, read-out: % Inhibition Average at maximal concentration", "value": 106, "unit": "%"}, {"measurement": "Hill Coefficient", "setting": "[1]; antagonist mode dose-response fit", "value": 0.92}]}]}
